Measured values reported in article PMC7667569, “Chemical Composition and Biological Activities of Endophytic Fungus Talaromyces Wortmannii LGT-4, Cultured in CYM Medium” (Iranian Journal of Pharmaceutical Research : IJPR, 2020).
In brackets after ≈: the same amount, converted by molar mass.

Test system: T1, monoamine oxidase (MAO)
T1 construct: gene MAOA
Experiment: MAO inhibition assay (procedure by reference)
Details: isoenzyme and enzyme source not told

SMILES	IC50 [µg/mL]
O=C1OCc2c(O)cccc21 [compound 1, 4-hydroxyphthalide]	35 (≈ 233 µM)
C[C@@H]1NC(=O)[C@@H]2CCCN2C1=O [compound 5, Cis-cyclo(L-Ala-L-Pro)]	28 (≈ 166 µM)
